Data from patent US20240285634A1, “COMPOUND AND METHOD FOR TREATING CHEMOTHERAPY-ASSOCIATED GASTROINTESTINAL SIDE EFFECTS” (ONQUALITY PHARMACEUTICALS CHINA LTD., priority 2021, published 2024).

Legend:
[1] = tested on: Chemotherapeutic agent-caused diarrhea models of Balb/c mice; assay: Relieving effect on diarrhea caused by a chemotherapeutic agent (Examples 1-201); type: in vivo
Excerpt: Construction of mouse animal models: Chemotherapeutic agent-caused diarrhea models of Balb/c mice were constructed according to the administration mode and frequency of the chemotherapeutic agent as shown in Table 3. After administration for several days, mice developed different extents of diarrhea symptoms (as shown in FIG. 1), which were similar to the conditions in human. Thus, chemotherapeutic agent-caused diarrhea models of mice are very good models to mimic diarrhea in human caused by the chemotherapeutic agent.
Balb/c mice were fed for 1 week, and then divided into groups. The experiment was divided into a control group, a chemotherapeutic agent group, and a group of the compound as shown in Formula I, each of which comprised 10 mice, to perform the administration experiment, for which the administration dosage, mode, time and frequency were shown in Table 3. The control group: being injected or intragastrically administered with the same solvent as that used in the group of the compound as shown in Formula I (the injection mode and time were shown in Table 3), and then being injected or intragastrically administered with the same solvent as that used in the chemotherapeutic agent group (the administration mode was shown in Table 3); the chemotherapeutic agent group: being injected or intragastrically administered with the same solvent as that used in the group of the compound as shown in Formula I (the administration mode and time were shown in Table 3), and then being injected or intragastrically administered with the chemotherapeutic agent (the type, administration mode and dosage were shown in Table 3); the group of the compound as shown in Formula I: being injected or intragastrically administered with the compound as shown in Formula I (the administration mode and time were shown in Table 3), and then being administered with the chemotherapeutic agent (the administration mode and dosage were shown in Table 3).
The scoring of diarrhea can refer to the method of Akinobu Kurita (Cancer Chemother Pharmacol 2000; 46:211-20.), Grade 0: normal feces; Grade 1: mild diarrhea, the stools is slightly wet and soft; Grade 2: moderate diarrhea, loose stools and mild perianal contamination; Grade 3: severe diarrhea, watery stools and accompanied by severe perianal staining (see FIG. 1). It is regarded as effective remission when the diarrhea grading of mice in the group of the compound as shown in Formula I is reduced compared with the average diarrhea grading of mice in the chemotherapeutic agent group.
The diarrhea grading of mice was observed and recorded every day. At the end of the experiment, the number of mice in the group of the compound as shown in Formula I whose diarrhea grading was lower than that of mice in the chemotherapeutic agent group was recorded. Table 3 lists various animal experiment combinations of chemotherapeutic agents and the compound as shown in Formula I, as well as the corresponding experimental results. (Relative remission rate %=the number of mice in the group of the compound as shown in Formula I whose diarrhea has been effectively relieved/the total number of mice in the group of the compound as shown in Formula I*100%. The establishment rate of diarrhea model in the chemotherapeutic agent group was 50%-70%, that is, about 5-7 of 10 mice developed diarrhea during the experiment, and there were cases of individual mice death or not developing diarrhea.)

[2] = tested on: Chemotherapeutic agent-caused constipation models of Balb/c mice; assay: Relieving effect on constipation caused by a chemotherapeutic agent (Examples 202-364); type: in vivo; conditions: Example 202; Fluorouracil (5-Fu) intraperitoneal injection 175 mg/kg single; compound intravenous injection 100 mg/kg, frequency 8, 0.5 h before chemotherapeutic agent; cycle 10 days
Excerpt: Construction of mouse animal models: Chemotherapeutic agent-caused constipation models of Balb/c mice were constructed according to the administration mode and frequency of the chemotherapeutic agent as shown in Table 4. […] Thus, chemotherapeutic agent-caused constipation models of mice are very good models to mimic constipation caused by the chemotherapeutic agent.
Balb/c mice were fed for 1 week, and then divided into groups. The experiment was divided into a control group, a chemotherapeutic agent group, and a group of the compound as shown in Formula I, each of which comprised 10 mice, to perform the administration experiment, for which the administration dosage, mode, time and frequency were shown in Table 4. The control group: being injected or intragastrically administered with the same solvent as that used in the group of the compound as shown in Formula I (the administration mode and time were shown in Table 4), and then being injected or intragastrically administered with the same solvent as that used in the chemotherapeutic agent group (the administration mode was shown in Table 4); the chemotherapeutic agent group: being injected or intragastrically administered with the same solvent as that used in the group of the compound as shown in Formula I (the administration mode and time was shown in Table 4), and then being injected or intragastrically administered with the chemotherapeutic agent (the type, administration mode and dosage were shown in Table 4); the group of the compound as shown in Formula I: being injected or intragastrically administered with the compound as shown in Formula I (the administration mode and time was shown in Table 4), and then being administered with the chemotherapeutic agent (the administration mode and dosage were shown in Table 4).
The feces reduction rate was calculated with reference to the method of Ji Eun Kim (Lab Anim Res. 2016 December; 32(4): 231-240.). Feces reduction rate (%)=(the control group−the chemotherapeutic agent group or the group of the compound as shown in Formula I)/the control group*100%
It is regarded as effective remission when the feces reduction rate of mice in the group of the compound as shown in Formula I is reduced compared with that in the chemotherapeutic agent group.
The feces amount of mice within 3 hours was observed and recorded every day. At the end of the experiment, the number of mice in the group of the compound as shown in Formula I whose feces reduction rate was lower than that of mice in the chemotherapeutic agent group was recorded. Table 4 lists various animal experiment combinations of chemotherapeutic agents and the compound as shown in Formula I, as well as the corresponding experimental results.

Compound: CN1CCN(c2ccc(Nc3ncc4cc5n(c4n3)C3(CCCCC3)CNC5=O)nc2)CC1 [Compound I, Trilaciclib]
- Relative remission rate ([1]; Ex 124, Fluorouracil 100 + irinotecan 200 mg/kg intravenous single, compound 100 mg/kg intravenous single 12 h before, cycle 10 days): 50%
- Relative remission rate ([1]; Ex 125, Fluorouracil 100 + irinotecan 200 mg/kg intravenous single, compound 100 mg/kg intravenous single 24 h before, cycle 10 days): 30%
- Relative remission rate ([1]; Ex 126, Fluorouracil 100 + irinotecan 200 mg/kg intravenous single, compound 100 mg/kg intravenous single 48 h before, cycle 10 days): 0%
- Relative remission rate ([1]; Ex 127, Fluorouracil 100 + irinotecan 200 mg/kg intraperitoneal single, compound 100 mg/kg intraperitoneal single 1 h before, cycle 8 days): 40%
- Relative remission rate ([1]; Ex 128, Fluorouracil 100 + irinotecan 200 mg/kg intraperitoneal single, compound 100 mg/kg intraperitoneal single 12 h before, cycle 8 days): 30%
- Relative remission rate ([1]; Ex 129, Fluorouracil 100 + irinotecan 200 mg/kg intraperitoneal single, compound 150 mg/kg oral single 0.5 h before, cycle 8 days): 40%
- Relative remission rate ([1]; Ex 130, Fluorouracil 100 + irinotecan 200 mg/kg intraperitoneal single, compound 150 mg/kg oral single 12 h before, cycle 8 days): 40%
- Relative remission rate ([1]; Ex 131, Fluorouracil 100 + irinotecan 200 mg/kg intraperitoneal single, compound 150 mg/kg oral single 24 h before, cycle 8 days): 30%
- Relative remission rate ([1]; Ex 138, Fluorouracil 50 + oxaliplatin 5 + irinotecan 50 mg/kg intraperitoneal single, compound 100 mg/kg intraperitoneal single 0.5 h before, cycle 10 days): 50%
- Relative remission rate ([1]; Ex 139, Fluorouracil 50 + oxaliplatin 5 + irinotecan 50 mg/kg intraperitoneal single, compound 100 mg/kg intraperitoneal single 4 h before, cycle 10 days): 40%
- Relative remission rate ([1]; Ex 140, Fluorouracil 50 + oxaliplatin 5 + irinotecan 50 mg/kg intraperitoneal single, compound 100 mg/kg intraperitoneal single 8 h before, cycle 10 days): 40%
- Relative remission rate ([1]; Ex 141, Fluorouracil 50 + oxaliplatin 5 + irinotecan 50 mg/kg intraperitoneal single, compound 100 mg/kg intraperitoneal single 12 h before, cycle 10 days): 50%
- Relative remission rate ([1]; Ex 142, Fluorouracil 50 + oxaliplatin 5 + irinotecan 50 mg/kg intraperitoneal single, compound 100 mg/kg intraperitoneal single 24 h before, cycle 10 days): 50%
- Relative remission rate ([1]; Ex 143, Fluorouracil 50 + oxaliplatin 5 + irinotecan 50 mg/kg intraperitoneal single, compound 100 mg/kg intraperitoneal single 48 h before, cycle 10 days): 0%
- Relative remission rate ([1]; Ex 144, Fluorouracil 50 + oxaliplatin 5 + irinotecan 50 + tetrahydrofolic acid 90 mg/kg intravenous single, compound 100 mg/kg intravenous single 0.5 h before, cycle 10 days): 50%
- Relative remission rate ([1]; Ex 145, Fluorouracil 50 + oxaliplatin 5 + irinotecan 50 + tetrahydrofolic acid 90 mg/kg intravenous single, compound 100 mg/kg intravenous single 1 h before, cycle 10 days): 40%
- Relative remission rate ([1]; Ex 146, Fluorouracil 50 + oxaliplatin 5 + irinotecan 50 + tetrahydrofolic acid 90 mg/kg intravenous single, compound 100 mg/kg intravenous single 2 h before, cycle 10 days): 40%
- Relative remission rate ([1]; Ex 147, Fluorouracil 50 + oxaliplatin 5 + irinotecan 50 + tetrahydrofolic acid 90 mg/kg intravenous single, compound 100 mg/kg intravenous single 3 h before, cycle 10 days): 30%
- Relative remission rate ([1]; Ex 148, Fluorouracil 50 + oxaliplatin 5 + irinotecan 50 + tetrahydrofolic acid 90 mg/kg intravenous single, compound 100 mg/kg intravenous single 4 h before, cycle 10 days): 40%
- Relative remission rate ([1]; Ex 149, Fluorouracil 50 + oxaliplatin 5 + irinotecan 50 + tetrahydrofolic acid 90 mg/kg intravenous single, compound 100 mg/kg intravenous single 6 h before, cycle 10 days): 40%
- Relative remission rate ([1]; Ex 150, Fluorouracil 50 + oxaliplatin 5 + irinotecan 50 + tetrahydrofolic acid 90 mg/kg intravenous single, compound 100 mg/kg intravenous single 8 h before, cycle 10 days): 30%
- Relative remission rate ([1]; Ex 151, Fluorouracil 50 + oxaliplatin 5 + irinotecan 50 + tetrahydrofolic acid 90 mg/kg intravenous single, compound 100 mg/kg intravenous single 10 h before, cycle 10 days): 30%
- Relative remission rate ([1]; Ex 152, Fluorouracil 50 + oxaliplatin 5 + irinotecan 50 + tetrahydrofolic acid 90 mg/kg intravenous single, compound 100 mg/kg intravenous single 12 h before, cycle 10 days): 30%
- Relative remission rate ([1]; Ex 153, Fluorouracil 50 + oxaliplatin 5 + irinotecan 50 + tetrahydrofolic acid 90 mg/kg intravenous single, compound 100 mg/kg intravenous single 14 h before, cycle 10 days): 50%
- Relative remission rate ([1]; Ex 154, Fluorouracil 50 + oxaliplatin 5 + irinotecan 50 + tetrahydrofolic acid 90 mg/kg intravenous single, compound 100 mg/kg intravenous single 16 h before, cycle 10 days): 50%
- Relative remission rate ([1]; Ex 155, Fluorouracil 50 + oxaliplatin 5 + irinotecan 50 + tetrahydrofolic acid 90 mg/kg intravenous single, compound 100 mg/kg intravenous single 18 h before, cycle 10 days): 60%
- Relative remission rate ([1]; Ex 156, Fluorouracil 50 + oxaliplatin 5 + irinotecan 50 + tetrahydrofolic acid 90 mg/kg intravenous single, compound 100 mg/kg intravenous single 20 h before, cycle 10 days): 60%
- Relative remission rate ([1]; Ex 157, Fluorouracil 50 + oxaliplatin 5 + irinotecan 50 + tetrahydrofolic acid 90 mg/kg intravenous single, compound 100 mg/kg intravenous single 24 h before, cycle 10 days): 30%
- Relative remission rate ([1]; Ex 158, Fluorouracil 50 + oxaliplatin 5 + irinotecan 50 + tetrahydrofolic acid 90 mg/kg intravenous single, compound 100 mg/kg intravenous single 48 h before, cycle 10 days): 0%
- Relative remission rate ([1]; Ex 159, Fluorouracil 50 + oxaliplatin 5 + irinotecan 50 + tetrahydrofolic acid 90 mg/kg intraperitoneal single, compound 100 mg/kg intraperitoneal single 0.5 h before, cycle 7 days): 50%
- Relative remission rate ([1]; Ex 160, Fluorouracil 50 + oxaliplatin 5 + irinotecan 50 + tetrahydrofolic acid 90 mg/kg intraperitoneal single, compound 100 mg/kg intraperitoneal single 24 h before, cycle 7 days): 20%
- Relative remission rate ([1]; Ex 163, Fluorouracil 50 + oxaliplatin 5 + irinotecan 50 + tetrahydrofolic acid 90 mg/kg intraperitoneal single, compound 150 mg/kg oral single 0.5 h before, cycle 7 days): 40%
- Relative remission rate ([1]; Ex 164, Fluorouracil 50 + oxaliplatin 5 + irinotecan 50 + tetrahydrofolic acid 90 mg/kg intraperitoneal single, compound 150 mg/kg oral single 4 h before, cycle 7 days): 60%
- Relative remission rate ([1]; Ex 165, Fluorouracil 50 + oxaliplatin 5 + irinotecan 50 + tetrahydrofolic acid 90 mg/kg intraperitoneal single, compound 150 mg/kg oral single 8 h before, cycle 7 days): 80%
- Relative remission rate ([1]; Ex 166, Fluorouracil 50 + oxaliplatin 5 + irinotecan 50 + tetrahydrofolic acid 90 mg/kg intraperitoneal single, compound 150 mg/kg oral single 12 h before, cycle 7 days): 40%
- Relative remission rate ([1]; Ex 167, Fluorouracil 50 + oxaliplatin 5 + irinotecan 50 + tetrahydrofolic acid 90 mg/kg intraperitoneal single, compound 150 mg/kg oral single 24 h before, cycle 7 days): 20%
- Relative remission rate ([1]; Ex 168, Fluorouracil 50 + oxaliplatin 5 + irinotecan 50 + tetrahydrofolic acid 90 mg/kg intraperitoneal single, compound 150 mg/kg oral single 0.5 h before, cycle 7 days): 40%
- Relative remission rate ([1]; Ex 169, Fluorouracil 50 + oxaliplatin 5 + irinotecan 50 + tetrahydrofolic acid 90 mg/kg intraperitoneal single, compound 150 mg/kg oral single 4 h before, cycle 7 days): 60%
- Relative remission rate ([1]; Ex 170, Fluorouracil 50 + oxaliplatin 5 + irinotecan 50 + tetrahydrofolic acid 90 mg/kg intraperitoneal single, compound 150 mg/kg oral single 8 h before, cycle 7 days): 80%
- Relative remission rate ([1]; Ex 171, Fluorouracil 50 + oxaliplatin 5 + irinotecan 50 + tetrahydrofolic acid 90 mg/kg intraperitoneal single, compound 150 mg/kg oral single 12 h before, cycle 7 days): 40%
- Relative remission rate ([1]; Ex 172, Fluorouracil 50 + oxaliplatin 5 + irinotecan 50 + tetrahydrofolic acid 90 mg/kg intraperitoneal single, compound 150 mg/kg oral single 24 h before, cycle 7 days): 20%
- Relative remission rate ([1]; Ex 190, Fluorouracil 100 + oxaliplatin 10 + irinotecan 200 + tetrahydrofolic acid 100 mg/kg oral single, compound 100 mg/kg subcutaneous single 1 h before, cycle 7 days): 60%
- Relative remission rate ([1]; Ex 191, Fluorouracil 100 + oxaliplatin 10 + irinotecan 200 + tetrahydrofolic acid 100 mg/kg oral single, compound 100 mg/kg subcutaneous single 2 h before, cycle 7 days): 50%
- Relative remission rate ([1]; Ex 192, Fluorouracil 100 + oxaliplatin 10 + irinotecan 200 + tetrahydrofolic acid 100 mg/kg oral single, compound 100 mg/kg subcutaneous single 4 h before, cycle 7 days): 30%
- Relative remission rate ([1]; Ex 193, Fluorouracil 100 + oxaliplatin 10 + irinotecan 200 + tetrahydrofolic acid 100 mg/kg oral single, compound 100 mg/kg subcutaneous single 6 h before, cycle 7 days): 30%
- Relative remission rate ([1]; Ex 196, Gemcitabine (GEM) 120 mg/kg intraperitoneal single, compound 100 mg/kg oral single 12 h before, cycle 8 days): 50%
- diarrhea gradings compared with the chemotherapeutic agent group ([1]; administered before the chemotherapeutic agent, Table 3 and FIG. 2): relieved to different degrees
- Relative remission rate (%) [2]: 40%
